Data set [1] can be described thus: Vaginal pH and cytokines/chemokines in vaginal fluids after repeated gel. The class given is in vivo, Rhesus macaques (Macaca mulatta). The protocol:
PBMCs were isolated from EDTA blood using Ficoll-Hypaque density gradient centrifugation (Amersham Pharmacia Biotech, Uppsala, Sweden) as already described. RPMI 1640 (Invitrogen/GIBCO, Carlsbad, CA, USA) culture medium containing 2 mM L-glutamine (Invitrogen/GIBCO) 10 mM HEPES (N-2-hydroxyethylpiperazine-N'-2-ethanesulfonic acid) (Invitrogen/GIBCO), 50 µM 2-mercaptoethanol (Sigma) penicillin (100 U/ml) and streptomycin (100 µg/ml) (Invitrogen/GIBCO) and 1% heparinized human plasma (Innovative Research, Southfield, MI) was used for final re-suspension of PBMCs. Medium with 10% HI-FBS (heat inactivated fetal bovine serum) (Invitrogen/GIBCO) instead of 1% human plasma was used for the PBMC-174xCEM co-cultures. DNA was isolated from lymph nodes as described with the DNeasy® Blood & Tissue Kit (Qiagen Sciences, MD USA). […] Vaginal pH was determined by inserting pH-indicator strip (EMO Chemical Inc., Gibbstown, NJ) into the vaginal vault for 5 minutes to saturate the pH paper with vaginal fluid.
SIV-specific IFN-γ T cell responses were monitored by ELISPOT using AT-2 SIV (versus the no virus microvesicle controls) as the stimuli and SIV-specific antibodies by ELISA [36]. […] Cell-free vaginal fluids were analyzed for chemokine and cytokine expression using the monkey-reactive Beadlyte human 14-plex Detection System according to the manufacturer's instructions (Invitrogen). […]

The subject of data set [2] is R5 and X4 viruses. The arrangement: method as in PMID 16924181, PMID 18776937, PMID 7545297. As to conditions: read-out: antiviral IC50; cited from earlier work.
In data set [3] the test system is HIV-1. As to conditions: in vitro; ref Fernández-Romero unpublished; cited from earlier work.
For data set [4], the system named is R5 and X4 viruses. Also noted: method as in PMID 16924181, PMID 18776937, PMID 7545297. As to conditions: potentially virucidal; cited from earlier work.
The subject of data set [5] is HIV-1 L100I/K103N double mutant. Also noted: method as in Fernández-Romero unpublished. The note with it: ref Fernández-Romero unpublished; read-out: IC50 against L100I/K103N double mutant; cited from earlier work.
For data set [6] the following is noted: rat, in vivo; cited from earlier work.
Data set [7] concerns HIV-1 wild type. The arrangement: method as in Fernández-Romero unpublished. As to conditions: ref Fernández-Romero unpublished; read-out: IC50 against wild type; cited from earlier work.
For data set [8], the system named is HIV-1 Y181C mutant. Also noted: method as in Fernández-Romero unpublished. The note with it: ref Fernández-Romero unpublished; read-out: IC50 against Y181C mutant; cited from earlier work.
Details of data set [9]: method as in PMID 18086845. As to conditions: 8 h after daily treatment for 7 days with 273 µM TMC120; cited from earlier work.

Read-outs that look alike come from different tables or passages of the source. Bounds are passed on as bounds.

Regarding `CCC(=O)c1ccc(F)c([C@@H]2C[C@@H]2NC(=O)Nc2ccc(C#N)cn2)c1O` [MIV-150], the “impact on vaginal pH” value in data set [1] (before, during and 8 or 24 h after 2 week gel administration) is reported as “no impact”. Besides, the “impact on CXCL8 and CCL2 levels in vaginal fluids” value in data set [1] (relative to carrageenan, 2 week daily gel administration) was “no further impact”. The IC50 in data set [2] was less than 1 nM; in [4], 400 nM; in data set [5], 900 nM; in data set [7], 0.7 nM; in data set [8] it was 0.2 nM. Also, in data set [3], the “memory effect: time exposed cells remain resistant to infection” value is given as “up to 5 d”. Besides, the “time to becoming undetectable in plasma (short plasma half-life)” value in data set [6] is no more than 24 h.
For the compound `O=C1Nc2ccc(Cl)cc2[C@@](C#CC2CC2)(C(F)(F)F)O1` [Efavirenz, reference compound], the IC50 is greater than 10000 nM in data set [5] and 0.6 nM in [7].
Turning to `Cc1cc(C)c(Nc2ccnc(Nc3ccc(C#N)cc3)n2)c(C)c1` [TMC120], in data set [9], the “level of TMC120 associated with the cervical tissues” value was 3 to 80 pg/mg.

Values taken from PMC3016413, “An Antiretroviral/Zinc Combination Gel Provides 24 Hours of Complete Protection against Vaginal SHIV Infection in Macaques” (PLoS ONE, 2011).
